{"source": "patent US11534457B2", "about": "“Use of dextran sulfate” (priority 2017, dated 2022)", "system": "BT system [CD19^+ B cells and PBMC+(a-IgM and TCR ligands)]", "test": "BioMAP BT system", "assay_type": "cell-based, Human", "description": "In this study LMW-DS was characterized by profiling in the BioMAP® Diversity PLUS panel. The BioMAP® panel consists of human primary cell-based systems designed to model different aspects of the human body in an in vitro format. The 12 systems in the BioMAP® Diversity PLUS panel (Table 32) allow test agent characterization in an unbiased way across a broad set of systems modeling various human disease states. The BioMA®P systems are constructed with one or more primary cell types from healthy human donors, with stimuli, such as cytokines or growth factors, added to capture relevant signaling networks that naturally occur in human tissue or pathological conditions. Vascular biology is modeled in both a Th1 (3C system) and a Th2 (4H system) inflammatory environment, as well as in a Th1 inflammatory state specific to arterial smooth muscle cells (CASM3C system). Additional systems recapitulate aspects of the systemic immune response including monocyte-driven Th1 inflammation (LPS system) or T cell stimulation (SAg system), chronic Th1 inflammation driven by macrophage activation (IMphg system) and the T cell-dependent activation of B cells that occurs in germinal centers (BT system). The BE3C system (Th1) and the BF4T system (Th2) represent airway inflammation of the lung, while the MyoF system models myofibroblast-lung tissue remodeling. Lastly, skin biology is addressed in the KF3CT system modeling Th1 cutaneous inflammation and the HDF3CGF system modeling wound healing.\nFour concentrations of LMW-DS (150 nM, 440 nM, 1.3 μM, 4 μM) were investigated in the BioMAP® Diversity PLUS panel by Eurofins.\nCell types and stimuli used in each system are as follows: 3C system [HUVEC+(IL-1β, TNFα and IFNγ)], 4H system [HUVEC+(IL-4 and histamine)], LPS system [PBMC and HUVEC+LPS (TLR4 ligand)], SAg system [PBMC and HUVEC+TCR ligands], BT system [CD19^+ B cells and PBMC+(a-IgM and TCR ligands)], BF4T system [bronchial epithelial cells and HDFn+(TNFα and IL-4)], BE3C system [bronchial epithelial cells+(IL-1β, TNFα and IFNγ)], CASM3C system [coronary artery smooth muscle cells+(IL-1β, TNFα and IFNγ)], HDF3CGF system [HDFn+(IL-1β, TNFα, IFNγ, EGF, bFGF and PDGF-BB)], KF3CT system [keratinocytes and HDFn+(IL-1β, TNFα, IFNγ and TGFβ)], MyoF system [differentiated lung myofibroblasts+(TNFα and TGFβ)] and /Mphg system [HUVEC and M1 macrophages+Zymosan (TLR2 ligand)].\nSystems are derived from either single cell types or co-culture systems. Adherent cell types are cultured in 96 or 384-well plates until confluence, followed by the addition of PBMC (SAg and LPS systems). The BT system consists of CD19+ B cells co-cultured with PBMC and stimulated with a BCR activator and low levels of TCR stimulation. Test agents prepared in either DMSO (small molecules; final concentration 0.1%) or PBS (biologics) are added at the indicated concentrations 1-hr before stimulation, and remain in culture for 24-hrs or as otherwise indicated (48-hrs, MyoF system; 72-hrs, BT system (soluble readouts); 168-hrs, BT system (secreted IgG)). Each plate contains drug controls (e.g., legacy control test agent colchicine at 1.1 μM), negative controls (e.g., non-stimulated conditions) and vehicle controls (e.g., 0.1% DMSO) appropriate for each system. Direct ELISA is used to measure biomarker levels of cell-associated and cell membrane targets. Soluble factors from supernatants are quantified using either HTRF® detection, bead-based multiplex immunoassay or capture ELISA. Overt adverse effects of test agents on cell proliferation and viability (cytotoxicity) are detected by sulforhodamine B (SRB) staining, for adherent cells, and alamarBlue® reduction for cells in suspension. For proliferation assays, individual cell types are cultured at subconfluence and measured at time points optimized for each system (48-hrs: 3C and CASM3C systems; 72-hrs: BT and HDF3CGF systems; 96-hrs: SAg system). […]"}
{"substance": "low molecular weight dextran sulfate [LMW-DS]", "values": [{"measurement": "IL-17A", "value": "decreased"}, {"measurement": "IL-17F", "value": "decreased"}, {"measurement": "antiproliferative effects on B cells", "value": "without any antiproliferative effects"}, {"measurement": "sIgG", "value": "decreased"}, {"measurement": "Decreased biomarker activity", "setting": "BT system", "value": "sIgG, sIL-17F"}, {"measurement": "Increased biomarker activity", "setting": "BT system", "value": "sIL-17A"}]}
